For orientation: IC50 means the concentration that inhibits the measured activity by half.

From article PMC3179866, “Antiproliferative Activity of Xanthones Isolated from Artocarpus obtusus” (Journal of Biomedicine and Biotechnology, 2011) come the findings set out here.

The test system of assay [1] is HL60 (human promyelocytic leukemia) cells. Briefly: MTT cytotoxicity assay, HL60. The format is cell-based. Particulars: HL-60, 72 h, 72 hours continuous exposure. From the text: (§1) The cancerous and noncancerous cell lines (suspension and anchorage-dependent cells) were obtained from the American Type Culture Collection (ATCC) and the RIKEN Cell Bank (RCB). The cancerous cell lines used were HL-60 (human acute promyelocytic leukemia) (RCB), K562 (human chronic myeloid leukemia) (ATCC), MCF7 (human estrogen receptor (ER+) positive breast cancer) (ATCC), HeLa (human cervical cancer) (ATCC), HepG2 (human hepatocarcinoma) (ATCC), HT29 (human colon cancer) (RCI), and MDA-MB 231 (human estrogen receptor (ER−) negative) (ATCC). The noncancerous cell line and normal cells were 3T3 (Mouse embryo fibroblast) (ATCC), MCF10A (human nontumorigenic breast cell line) (ATCC) and PBMC (human peripheral blood mononuclear cells). PBMCs were obtained from one of the authors herself. Blood (10–12 mL) was taken from the donor by using the 25 mL syringe. The blood sample was diluted with same volume of PBS. The diluted blood sample was carefully layered on Ficoll-Paque Plus (Amersham Biosciences, USA) the ratio of 2 : 1. The mixture was centrifuged at 1500× g for 40 minutes at 18–20°C. The undisturbed lymphocyte layer was carefully transferred into centrifuge tube. […]
(§2) The colorimetric assay was performed on the isolated compounds using a modified microculture tetrazolium salt (MTT) assay (Sigma, USA). […] After incubation, the fractions of surviving cells were determined relative to the untreated cell population using the colorimetric MTT assay. In this method, the viabilities of the cells were determined by measuring the amount of blue formazan crystals formed after 20 mL of freshly prepared MTT solution (5 mg in 1 mL PBS) was added to each well followed by four hours of incubation at 37°C. […] Finally, the absorbance (OD) of each well at 570 nm of wavelength was read using the microplate reader (ELISA reader, EL340 Biokinetic Reader, Bio-Tek Instrumentation). […] The percentage of cell viability was determined as follows: […]
On the technique in general: Formazan colour is commonly taken as a measure of viable cells.

Assay [2] relates to PBMC (human peripheral blood mononuclear cells). Kind of assay: MTT cytotoxicity assay, PBMC. The format is cell-based. Particulars: PBMC (normal), 72 hours continuous exposure.
Text: as §1, §2

Assay [3] deals with MCF7 (human estrogen receptor (ER+) positive breast cancer) cells. Kind of assay: MTT cytotoxicity assay, MCF7. In kind it is cell-based. Particulars: 72 hours continuous exposure.
Text: The cancerous and noncancerous cell lines (suspension and anchorage-dependent cells) were obtained from the American Type Culture Collection (ATCC) and the RIKEN Cell Bank (RCB). The cancerous cell lines used were HL-60 (human acute promyelocytic leukemia) (RCB), K562 (human chronic myeloid leukemia) (ATCC), MCF7 (human estrogen receptor (ER+) positive breast cancer) (ATCC), HeLa (human cervical cancer) (ATCC), HepG2 (human hepatocarcinoma) (ATCC), HT29 (human colon cancer) (RCI), and MDA-MB 231 (human estrogen receptor (ER−) negative) (ATCC). The noncancerous cell line and normal cells were 3T3 (Mouse embryo fibroblast) (ATCC), MCF10A (human nontumorigenic breast cell line) (ATCC) and PBMC (human peripheral blood mononuclear cells). PBMCs were obtained from one of the authors herself. Blood (10–12 mL) was taken from the donor by using the 25 mL syringe. The blood sample was diluted with same volume of PBS. The diluted blood sample was carefully layered on Ficoll-Paque Plus (Amersham Biosciences, USA) the ratio of 2 : 1. The mixture was centrifuged at 1500× g for 40 minutes at 18–20°C. The undisturbed lymphocyte layer was carefully transferred into centrifuge tube. The lymphocyte was washed and spun down three times by adding 10 mL sterile PBS and to get the pellet and resuspended in RPMI 1640 (Sigma, USA) with 100 IU/mL of penicillin, 100 μg/mL of streptomycin (Flowlab, Australia), and 10% v/v Fetal Bovine Serum (FBS) (PAA, Austria). Cell counting was performed to determine the PBMC number in equal volume of trypan blue.
as §2, with “USA). Varying concentrations of 0.46, 0.93, 1.87, 3.75, 7.5, 15, and 30 μg/mL of pyranocycloartobiloxanthone A (1), dihydroartoindonesianin C (2), and pyranocycloartobiloxanthone B (3) were prepared from the substock solutions by serial dilution in RPMI 1640 to give a volume of 100 μL in each microtitre plate well (96-flat bottom microwell plates). Each well was then added with 100 μL of cell lines in complete growth media (RPMI 1640) 5 × 10^5 cells/mL.” for “USA).”

Assay [4] has as its system HeLa (human cervical cancer) cells. Kind of assay: MTT cytotoxicity assay, HeLa. The format is cell-based. Particulars: 72 hours continuous exposure.
Text: (§3) The cancerous and noncancerous cell lines (suspension and anchorage-dependent cells) were obtained from the American Type Culture Collection (ATCC) and the RIKEN Cell Bank (RCB). The cancerous cell lines used were HL-60 (human acute promyelocytic leukemia) (RCB), K562 (human chronic myeloid leukemia) (ATCC), MCF7 (human estrogen receptor (ER+) positive breast cancer) (ATCC), HeLa (human cervical cancer) (ATCC), HepG2 (human hepatocarcinoma) (ATCC), HT29 (human colon cancer) (RCI), and MDA-MB 231 (human estrogen receptor (ER−) negative) (ATCC). […]
as §2

Assay [5] has as its system MCF7 cells. Briefly: Cell proliferation ELISA BrdU assay, MCF7. Conditions: MCF7, treated at IC50 concentration (5 μg/mL). The format is cell-based, human. As to the method: (§4) This assay was conducted to determine the antiproliferative effects of the tested compound. In this assay, three different concentrations of compound or test sample were prepared together with control. The concentration chosen were 1 μg/mL, the IC50 concentration, and 20 μg/mL. Two types of cells were selected: HL-60 (suspension) and MCF7 (adherent) cells, since they gave the most significant results for the cytotoxic activity. The procedures are according to the instruction manual from Roche. Each sample was assayed in triplicate, and control samples include a blank (no cells) and background (without BrdU). The cells were treated by pyranocycloartobiloxanthone A (1) for 24, 48, and 72 hours. The cells were cultured together with various dilutions of test substance (tested compound) in 96-well MP flat bottom in a final volume of 100 μL/well, and 10 μL BrdU label (diluted by 1/2000 in media) was added to each well and incubated for 24 hour at 37°C. BrdU label was then replaced with 200 μL of fix/denaturing solution for 30 min at room temperature (25°C) and removed by inverting the plate. The anti-BrdU-POD working solution (100 μL/well) (diluted by 1/100 in dilution buffer) was added and incubated for one hour at room temperature. The cells were washed three times with wash buffer and once with dH2O. Then, removed dH2O and 100 μL of substrate solution was added to each well and incubated for 15 min at room temperature in the dark. The stop solution (100 μL/well) was added, and the absorbance was measured using ELISA reader at 450 nm, (reference wavelength 690). The activity was observed by the optical density (OD) of the absorbance at 450 nm, and graphs were plotted from the optical density obtained against time of exposure for each cell lines.
On the technique in general: An ELISA detects its analyte on a solid surface through an enzyme-linked reagent.

The test system of assay [6] is MCF10A (human nontumorigenic breast cell line). Briefly: MTT cytotoxicity assay, MCF10A. Conditions: MCF10A (normal), 72 hours continuous exposure. The format is cell-based.
Text: as §3, §2

Assay [7] has as its system MCF7 cells. Kind of assay: Acridine orange / propidium iodide staining, MCF7. The format is cell-based, human. Conditions: MCF7, 5 μg/mL (IC50), 72 hours. As to the method: (§5) Cell suspensions were mixed with an equal volume of staining solution (1 : 1) containing 10 μg/mL acridine orange and 10 μg/mL propium iodide (dissolved in PBS) and observed under fluorescence microscope within 30 minutes. The viable (green intact cells), apoptotic (green shrinking cells with condensed of fragmented nucleus), and necrotic (red cells) were the morphological changes that were examined under fluorescence microscope.

Assay [8] has as its system HT29 (human colon cancer) cells. Kind of assay: MTT cytotoxicity assay, HT29. Particulars: HT-29, 72 hours continuous exposure. In kind it is cell-based.
Text: as §3, §2

Assay [9] concerns MDA-MB 231 (human estrogen receptor (ER-) negative) cells. Briefly: MTT cytotoxicity assay, MDA-MB 231. The format is cell-based. Particulars: MDA-MB 231, MTT, 72 hours continuous exposure.
Text: as §3, §2

Assay [10] has as its system HL60 cells. Kind of assay: Cell proliferation ELISA BrdU assay, HL60. In kind it is cell-based, human. Conditions: HL60, treated at IC50 concentration (2 μg/mL). As to the method:
as §4

Assay [11] deals with HL60 cells. Kind of assay: Acridine orange / propidium iodide staining, HL60. In kind it is cell-based, human. Conditions: HL60, 2 μg/mL (IC50), 72 hours. On the procedure:
as §5

Assay [12] relates to HepG2 (human hepatocarcinoma) cells. Kind of assay: MTT cytotoxicity assay, HepG2. In kind it is cell-based. Particulars: 72 hours continuous exposure.
Text: as §3, §2

The subject of assay [13] is 3T3 (mouse embryo fibroblast) cells. Kind of assay: MTT cytotoxicity assay, 3T3. The format is cell-based. Particulars: 3T3, MTT, 72 hours continuous exposure.
Text: as §3, §2

In assay [14] the test system is K562 (human chronic myeloid leukemia) cells. Briefly: MTT cytotoxicity assay, K562. The format is cell-based. Conditions: K562, 72 h, 72 hours continuous exposure.
Text: as §3, §2

The structures appear in SMILES notation. Converted amounts (≈) assume the structure as drawn. Like-named read-outs stand apart in the source and are kept apart here.

Consider `COc1cccc2c1C(=O)c1c(O)c3c(c(O)c1C2=O)C[C@@](O)(C(=O)CO)C[C@@H]3O[C@H]1C[C@H](N)[C@H](O)[C@H](C)O1` [Doxorubicin, reference compound], for which the IC50 in assay [1] is 0.2 ± 0.03 µg/mL (≈ 0.368 µM); in assay [2] (Homo sapiens, read-out: IC50) it was above 30 µg/mL; in assay [3], 0.2 ± 0.06 µg/mL (≈ 0.368 µM).
`CC1C(O)Oc2c(O)cc(O)c3c2C1Cc1c-3oc2c3c(cc(O)c2c1=O)OC(C)(C)C=C3` (stereo not drawn) [compound 1, pyranocycloartobiloxanthone A]: the IC50 in [4] is 8 ± 3.3 µg/mL (≈ 17.8 µM); in assay [6] (Homo sapiens, MCF-10A, read-out: IC50), above 30 µg/mL; in assay [6], “not toxic”; in [2] (Homo sapiens, read-out: IC50), above 30 µg/mL; in assay [2], “not toxic”; in [8], 14 ± 1.5 µg/mL (≈ 31.1 µM). The IC50 stood at 12 ± 1.1 µg/mL (≈ 26.6 µM) in assay [9], 20 ± 2 µg/mL (≈ 44.4 µM) in assay [12], 5 ± 1.2 µg/mL (≈ 11.1 µM) in assay [3] and 7 ± 1.6 µg/mL (≈ 15.5 µM) in assay [13]. The “OD value (BrdU ELISA, 450 nm)” value in the assay with MCF7 cells [5] (24 hours, untreated 1.44) is on record as 0.89; in the assay with MCF7 cells [5] (48 hours, untreated 2.08) it was 0.75; in the assay with MCF7 cells [5] (72 hours, untreated 2.88), 0.66; with HL60 cells [10] (24 hours, untreated 1.34), 0.8; in the assay with HL60 cells [10] (48 hours, untreated 1.26), 0.78; in the assay on HL60 cells [10] (72 hours, untreated 1.65), 0.66. The “mode of cell death (AO/PI morphology)” value with MCF7 cells [7] and in the assay on HL60 cells [11] was “kill both cells in apoptotic manner” each time.
As to `C=C(C)c1cc2c(=O)c3c(O)cc4c(c3oc2c2c1C(C)(O)CC2=O)C=CC(C)(C)O4` (stereo not drawn) [compound 2, dihydroartoindonesianin C], the IC50 in assay [1] is 26 ± 0.8 µg/mL (≈ 62.1 µM); in assay [14] it was above 30 µg/mL; in assay [3], 27 ± 1.9 µg/mL (≈ 64.5 µM).
Taken in the same sequence, the figures for `CC1Oc2c(O)cc(O)c3c2C(Cc2c-3oc3c4c(cc(O)c3c2=O)OC(C)(C)C=C4)C1O` (stereo not drawn) [compound 3, pyranocycloartobiloxanthone B] were 17 ± 0.8 µg/mL (≈ 37.7 µM), above 30 µg/mL and 23 ± 1.3 µg/mL (≈ 51.1 µM).
